Patent US20240067657A1, “AMIDO-SUBSTITUTED PYRIDYL COMPOUNDS AND METHODS OF USE THEREOF FOR THE TREATMENT OF HERPESVIRUSES” (Merck Sharp & Dohme LLC, priority 2020, published 2024)
Like-named read-outs stand apart in the source and are kept apart here.

How the values were obtained:
[1] = molecular target: T1, Human cytomegalovirus DNA polymerase (Human cytomegalovirus, UniProt P08546); assay: HCMV polymerase assay (AlphaLISA, IC50); type: biochemical; settings: polymerase assay of Example 190
T1 construct: made in house; host or cells: SF21 insect cells (baculovirus vector)
Summary of the method: (§1)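 Baculovirus-expressed polymerase (HCMV 0.2 nM, VZV 0.4 nM final) preincubated 30 min at room temperature with compound in pH 7.5 HEPES buffer; reaction started with 1.6 nM DIG-primer/template and nM dNTPs including biotin-dUTP, run 60 min at 37° C. Incorporation detected by AlphaLISA; IC50 from 4-parameter fit.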

[2] = molecular target: T2, varicella zoster virus DNA polymerase (Varicella-zoster virus, UniProt P09252); assay: VZV polymerase assay (AlphaLISA, IC50); type: biochemical; settings: polymerase assay of Example 190
T2 construct: made in house; host or cells: SF21 insect cells (baculovirus vector)
Summary of the method: as §1

[3] = test system: HCMV Strain AD169 in MRC-5 cells; assay: Viral qPCR assay HCMV (V0/V1, V2/V3), EC50; type: cell-based
Summary of the method: (§2)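 Infected cells added to compounds (10-point 3-fold series), ~72 h at 37 °C, then lysed; viral genomes by TaqMan qPCR against plasmid standard, normalized to PPIA in V0/V1 only, EC50 from 4-parameter fit. HCMV AD169, 0.05-0.1 pfu/cell, ± 50% FBS; VZV 0.04-0.1 pfu/cell; HSV-1 F 0.0005-0.004 pfu/cell.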

[4] = test system: VZV in MeWo or MRC5 cells; assay: Viral qPCR assay VZV (V0/V1, V2/V3), EC50; type: cell-based
Summary of the method: as §2

[5] = test system: HSV-1 Strain F in Vero or MRC5 cells; assay: Viral qPCR assay HSV-1 (V0/V1, V2/V3), EC50; type: cell-based
Summary of the method: as §2

[6] = Human betaherpesvirus 5, AD169, MRC5, viral qPCR assay of Example 191, read-out: HCMV Cell (EC50)
[7] = Human alphaherpesvirus 3, MRC5, MRC5 cells, 10%, read-out: VZV Cell (EC50) MRC5 10%
[8] = Human alphaherpesvirus 1, MRC5, MRC5 cells, 10%, read-out: HSV1 Cell (EC50) MRC5 10%
[9] = Human alphaherpesvirus 3, MeWo, MEWO cells, 10%, read-out: VZV Cell (EC50) MEWO 10%
[10] = Human alphaherpesvirus 1, Vero, VERO cells, 10%, read-out: HSV1 Cell (EC50) VERO 10%

T2 sequence (P09252 whole entry): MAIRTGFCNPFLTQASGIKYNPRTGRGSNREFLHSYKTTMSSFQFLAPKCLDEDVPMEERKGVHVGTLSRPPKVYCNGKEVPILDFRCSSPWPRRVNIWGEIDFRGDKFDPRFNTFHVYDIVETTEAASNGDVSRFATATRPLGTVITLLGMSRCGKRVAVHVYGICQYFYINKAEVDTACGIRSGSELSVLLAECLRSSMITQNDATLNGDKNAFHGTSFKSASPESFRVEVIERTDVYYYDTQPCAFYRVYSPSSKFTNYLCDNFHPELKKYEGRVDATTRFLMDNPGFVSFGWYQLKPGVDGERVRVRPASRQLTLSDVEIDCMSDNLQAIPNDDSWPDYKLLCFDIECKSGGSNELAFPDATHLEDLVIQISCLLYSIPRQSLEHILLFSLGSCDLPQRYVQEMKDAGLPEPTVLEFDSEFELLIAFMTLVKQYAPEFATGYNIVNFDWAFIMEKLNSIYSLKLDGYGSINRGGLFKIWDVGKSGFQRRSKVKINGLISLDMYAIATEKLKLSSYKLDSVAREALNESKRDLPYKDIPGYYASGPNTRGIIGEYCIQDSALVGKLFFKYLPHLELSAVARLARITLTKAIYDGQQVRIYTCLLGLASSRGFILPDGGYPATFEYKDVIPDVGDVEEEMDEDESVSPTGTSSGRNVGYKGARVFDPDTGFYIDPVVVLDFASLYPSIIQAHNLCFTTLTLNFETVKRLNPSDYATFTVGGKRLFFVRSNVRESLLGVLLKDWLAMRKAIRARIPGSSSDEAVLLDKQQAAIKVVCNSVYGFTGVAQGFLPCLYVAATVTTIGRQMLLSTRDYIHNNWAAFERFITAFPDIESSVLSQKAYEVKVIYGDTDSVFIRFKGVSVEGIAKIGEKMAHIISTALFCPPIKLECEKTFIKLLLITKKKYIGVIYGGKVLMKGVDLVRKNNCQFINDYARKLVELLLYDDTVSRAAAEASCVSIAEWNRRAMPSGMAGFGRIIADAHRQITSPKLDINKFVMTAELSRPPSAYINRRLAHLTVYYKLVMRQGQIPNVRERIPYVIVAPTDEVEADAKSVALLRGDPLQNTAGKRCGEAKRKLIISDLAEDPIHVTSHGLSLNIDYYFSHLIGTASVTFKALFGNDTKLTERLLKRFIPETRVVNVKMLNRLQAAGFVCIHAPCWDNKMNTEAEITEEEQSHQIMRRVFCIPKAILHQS
T1 sequence (P08546 whole entry): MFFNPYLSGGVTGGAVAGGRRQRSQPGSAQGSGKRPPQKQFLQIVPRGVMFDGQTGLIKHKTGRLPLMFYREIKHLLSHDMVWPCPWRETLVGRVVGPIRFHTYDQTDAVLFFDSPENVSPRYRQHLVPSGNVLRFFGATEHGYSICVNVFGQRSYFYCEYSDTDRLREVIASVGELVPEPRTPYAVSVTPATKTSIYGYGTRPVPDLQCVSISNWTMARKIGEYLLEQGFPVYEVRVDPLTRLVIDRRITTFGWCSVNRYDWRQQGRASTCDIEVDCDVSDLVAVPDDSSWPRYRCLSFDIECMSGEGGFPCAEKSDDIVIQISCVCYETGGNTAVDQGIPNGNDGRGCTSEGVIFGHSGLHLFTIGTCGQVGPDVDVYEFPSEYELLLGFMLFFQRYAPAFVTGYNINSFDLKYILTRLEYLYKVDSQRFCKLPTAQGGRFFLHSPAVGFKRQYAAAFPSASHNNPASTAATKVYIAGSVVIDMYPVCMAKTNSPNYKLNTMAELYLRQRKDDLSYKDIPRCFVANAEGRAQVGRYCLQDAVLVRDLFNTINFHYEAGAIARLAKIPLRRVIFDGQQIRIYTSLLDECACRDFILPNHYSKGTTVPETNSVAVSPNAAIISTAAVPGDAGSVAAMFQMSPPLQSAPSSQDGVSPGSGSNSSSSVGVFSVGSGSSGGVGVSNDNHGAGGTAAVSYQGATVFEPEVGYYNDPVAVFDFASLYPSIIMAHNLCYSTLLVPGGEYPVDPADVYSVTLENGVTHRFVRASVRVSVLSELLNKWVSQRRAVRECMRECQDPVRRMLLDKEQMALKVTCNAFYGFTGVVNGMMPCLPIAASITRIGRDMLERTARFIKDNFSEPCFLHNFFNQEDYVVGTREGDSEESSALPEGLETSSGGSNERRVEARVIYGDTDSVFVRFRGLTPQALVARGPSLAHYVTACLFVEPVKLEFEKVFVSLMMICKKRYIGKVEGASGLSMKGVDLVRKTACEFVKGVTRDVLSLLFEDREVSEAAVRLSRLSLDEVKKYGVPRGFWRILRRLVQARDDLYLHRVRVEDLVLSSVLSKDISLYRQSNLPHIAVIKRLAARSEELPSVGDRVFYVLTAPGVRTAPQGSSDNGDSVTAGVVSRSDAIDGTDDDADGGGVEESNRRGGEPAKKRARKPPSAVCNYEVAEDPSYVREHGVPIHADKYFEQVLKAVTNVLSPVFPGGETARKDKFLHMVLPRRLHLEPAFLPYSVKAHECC

For COC1CN(c2cnc(C(=O)NCc3ccc(Cl)cc3)cc2O[C@H]2CCN3C(=O)OC[C@@H]3C2)C1 [Compound 120], the IC50 [1] was 16.2 nM, the IC50 [2] was 2.6 nM and the EC50 [3, 6] was 210 nM. It also gave an EC50 [4, 7] of 441 nM and an EC50 [5, 8] of 434 nM.

O=C(NCc1ccc(Cl)cc1)c1cc(O[C@H]2CCN3C(=O)OC[C@@H]3C2)c(N2CC(O)C2)cn1 [Compound 122] was tested, and the IC50 [1] was 19.2 nM, the IC50 [2] was 9.04 nM and the EC50 [3, 6] was 121 nM. The EC50 [4, 7] was 582 nM and the EC50 [5, 8] was 520 nM.

Compound O=C(NCc1ccc(Cl)cc1)c1cc(O[C@H]2CCN3C(=O)OC[C@@H]3C2)c(N2CC(F)C2)cn1 [Compound 125] has an IC50 [1] of 37.7 nM, an IC50 [2] of 20 nM and an EC50 [3, 6] of 198 nM. For the same compound, the EC50 [4, 7] was 720 nM and the EC50 [5, 8] was 531 nM.

O=C(NCc1ccc(Cl)cc1)c1cc(O[C@H]2CCN3C(=O)OC[C@@H]3C2)c(OCC(F)(F)F)cn1 [Compound 126] showed an IC50 [1] of 25.8 nM, an IC50 [2] of 16.6 nM and an EC50 [3, 6] of 572 nM. The EC50 [4, 7] was 1460 nM, the EC50 [4, 9] was 488 nM and the EC50 [5, 8] was 1960 nM. It also gave an EC50 [5, 10] of 154 nM.

Compound N#Cc1cnc(C(=O)NCc2ccc(Cl)cc2)cc1O[C@H]1CCN2C(=O)OC[C@@H]2C1 [Compound 127] has an IC50 [1] of 30 nM, an IC50 [2] of 28.3 nM and an EC50 [3, 6] of 349 nM. It also gave an EC50 [4, 7] of 1110 nM, an EC50 [4, 9] of 239 nM and an EC50 [5, 8] of 800 nM. It also gave an EC50 [5, 10] of 234 nM.

COc1cnc(C(=O)NCc2ccc(Cl)cc2)cc1O[C@H]1CCN2C(=O)OC[C@@H]2C1 [Compound 129] was tested, and the IC50 [1] was 54 nM, the IC50 [2] was 18 nM and the EC50 ([3]; Human betaherpesvirus 5, AD169, MRC5, read-out: HCMV Cell (EC50)) was 546 nM. The EC50 ([4]; Human alphaherpesvirus 3, MeWo, read-out: VZV Cell (EC50) MEWO 10%) was 278 nM and the EC50 ([5]; Human alphaherpesvirus 1, Vero, read-out: HSV1 Cell (EC50) VERO 10%) was 339 nM.

Compound Cc1c[n+]([O-])c(C(=O)NCc2ccc(Cl)cc2)cc1O[C@H]1CCN2C(=O)OC[C@@H]2C1 [Compound 130] has an IC50 [1] of 89.1 nM, an IC50 [2] of 43.4 nM and an EC50 [3, 6] of 557 nM. The EC50 [4, 9] was 252 nM and the EC50 [5, 10] was 496 nM.

In the case of CC(C)n1cc(-c2c[n+]([O-])c(C(=O)NCc3ccc(Cl)cc3)cc2O[C@H]2CCN3C(=O)OC[C@@H]3C2)cn1 [Compound 131], the IC50 [1] is reported as 11.8 nM, the IC50 [2] is reported as 11 nM and the EC50 [3, 6] is reported as 98.5 nM. It also gave an EC50 [4, 9] of 158 nM and an EC50 [5, 10] of 268 nM.

In the case of CC(=O)N1CCC(Oc2cc(C(=O)NCc3ccc(Cl)cc3)[n+]([O-])cc2-c2cnn(C(F)F)c2)CC1 [Compound 132], the IC50 [1] is reported as 161 nM, the IC50 [2] is reported as 40.3 nM and the EC50 [3, 6] is reported as 1320 nM. The EC50 [4, 9] was 510 nM and the EC50 [5, 10] was 401 nM.

In the case of O=C(NCc1ccc(Cl)cc1)c1cc(O[C@H]2CCN3C(=O)OC[C@@H]3C2)c(CN2CCC(O)CC2)cn1 [Compound 135], the IC50 [1] is reported as 90 nM, the IC50 [2] is reported as 41.1 nM and the EC50 [3, 6] is reported as 634 nM. For the same compound, the EC50 [4, 9] was 344 nM and the EC50 [5, 10] was 9210 nM.

In the case of CN(CCCO)Cc1cnc(C(=O)NCc2ccc(Cl)cc2)cc1O[C@H]1CCN2C(=O)OC[C@@H]2C1 [Compound 136], the IC50 [1] is reported as 214 nM, the IC50 [2] is reported as 152 nM and the EC50 [3, 6] is reported as 989 nM. It also gave an EC50 [4, 9] of 386 nM and an EC50 [5, 10] of 9260 nM.

For O=C(NCc1ccc(Cl)cc1)c1cc(O[C@H]2CCN3C(=O)OC[C@@H]3C2)c(CN2CCCOCC2)cn1 [Compound 138], the IC50 [1] was 65.8 nM, the IC50 [2] was 13.7 nM and the EC50 [3, 6] was 296 nM. The EC50 [4, 9] was 198 nM and the EC50 [5, 10] was 420 nM.

O=C(NCc1ccc(Cl)cc1)c1cc(O[C@H]2CCN3C(=O)OC[C@@H]3C2)c(CN2CCSCC2)cn1 [Compound 139] gave an IC50 [1] of 33 nM, an IC50 [2] of 13.3 nM and an EC50 [3, 6] of 417 nM. The EC50 [4, 7] was 1180 nM and the EC50 [5, 10] was 545 nM.

In the case of O=C(NCc1ccc(Cl)cc1)c1cc(O[C@H]2CCN3C(=O)OC[C@@H]3C2)c(CNC2CC2)cn1 [Compound 141], the IC50 [1] is reported as 77.5 nM, the IC50 [2] is reported as 44.8 nM and the EC50 [3, 6] is reported as 554 nM. The EC50 [4, 7] was 2210 nM and the EC50 [5, 10] was 287 nM.

In the case of CN(Cc1cnc(C(=O)NCc2ccc(Cl)cc2)cc1O[C@H]1CCN2C(=O)OC[C@@H]2C1)[C@H]1CCOC1 [Compound 143], the IC50 [1] is reported as 14.8 nM, the IC50 [2] is reported as 13.4 nM and the EC50 [3, 6] is reported as 253 nM. The EC50 [4, 7] was 1270 nM and the EC50 [5, 10] was 471 nM.
